Reference: patent publication US4880809A, “1,4-disubstituted piperazines (or homopiperazines) as platelet-activating factor antagonists” (Takeda Chemical Industries, Ltd., priority 1987, dated 1989)

Key:
cerebral infarction [1] = experiment: Action Against Experimental Cerebral Infarction in Mongolian Gerbils (inclined plane); format: in vivo; settings: 30 mg/kg, p.o., n = 5
Experimental: (§1) Male 10 weeks old Mongolian gerbils were anesthetized with ether. The common carotid artery on both sides was exposed surgically. After waking, the artery was ligated with steel clips for 15 minutes. Then, the clips were removed and the blood was reperfused for three hours. Ataxia symptoms and manifestations of neuro-deficiency were assessed by the method using stroke index [C. P. McGraw: Arch. Neurol., 34, 334-336 (1977)] and inclined plane [A. S. Rivlin et al.: J. Neurosurg., 47, 577-581 (1977)]. The test compounds were orally administered one hour before ligation as a suspension in gum arabic. The control group was administered with the same volume of gum arabic. The number of animals subjected to this experiment was 5 each in both groups.

ET-induced hypotension = experiment: Anti-Endotoxin Shock Activity in Rats: ET-induced hypotension; format: in vivo, Jcl: SD male rats; settings: for Blood Pressure: 30 mg/kg p.o. one hour before ET, n = 5
Experimental: (§2) In a manner similar to that described in Test Example 2, Jcl: SD male rats (200 to 250 g) were applied with cannulation for measurement of blood pressure and for injecting PAF. The test animals were fasted overnight, and the experiments were conducted. The cannula on the side of femoral artery was connected with a pressure transducer and secured. The, endotoxin (ET) (50 mg/kg) was given through the cannula on the side of femoral vein at a rate of 1 ml/kg. While measuring blood pressure continuously, time until death was measured. Test drugs (30 mg/kg) were suspended in gum arabic and water, which were orally administered (5 ml/kg) to test animals one hour before the injection of ET. The animals in the control group were administered with a suspension of gum arabic in water.

PAF-Induced Hypotension = experiment: Inhibitory Action on PAF-Induced Hypotension; format: in vivo, SD (Jcl) male rats; settings: po, 30 mg/kg p.o., rat
Experimental: SD (Jcl) male rats of 6 to 8 week old were subjected to the experiment. After fasting overnight, the rats were cannulated into the femoral artery and vein under anesthesia with pentobarbital. A transducer (MPU-0.5-290O-III, TOYO BALDWIN, Japan) was connected with the artery cannula, and blood pressure was continuously measured. […] The rate of inhibition of lowering of blood pressure after administration of the test samples against the control was evaluated.

cerebral infarction [2] = experiment: Action Against Experimental Cerebral Infarction in Mongolian Gerbils (stroke index); format: in vivo; settings: 30 mg/kg, p.o., N = 5
Experimental: as §1

diabetic nephropathy = experiment: Action Against Diabetic Nephropathy; format: in vivo, Female KKAy mice; settings: for albumin (%) excreted in urine / Amount of albumin excreted in urine / Amount of glucose in plasma / Amount of triglyceride in plasma / Total amount of protein in urine: 3 weeks, N 8; for albumin (%) excreted in urine: in parentheses; for Amount of albumin excreted in urine / Amount of glucose in plasma / Amount of triglyceride in plasma / Total amount of protein in urine: means ±SE
Experimental: Female KKAy mice of 10 weeks old were employed. Test animals were administered with the compound of Example 62 for three weeks at doses of 8 and 26 mg/kg/day in admixture with feedstuff. Then, urine was collected from these animals for 24 hours. Urine desalted (filtered urine) by means of a PD-10 column (Pharmacia) was employed to determine the total protein concentration in the urine by using a protein-assay kit (Bio-Rad). The amount ot albumin in the urine was calculated from the relative concentration of albumin to the total protein determined by means of electrophoresis.
Glucose and triglyceride in the plasma were determined by an enzyme method using the Ankol Chemistry System (Baker instruments).

[3] = test system: PAF-Induced Platelet Aggregation; experiment: Inhibitory Action on PAF-Induced Platelet Aggregation; format: cell-based, New Zealand white male rabbits; settings: Oryctolagus cuniculus, Drug Concentration: 3 × 10^-5 M, rabbit PRP
Experimental: Blood was collected from the hearts of conscious New Zealand white male rabbits weighing 2 to 3 kg using citric acid as an anticoagulant (one volume part of 3.15% citric acid per 9 volume parts of the whole blood). The blood was subjected to a centrifuge at 800 rpm for ten minutes to obtain platelet rich plasma (PRP). The remaining blood after collecting the PRP was subjected to a centrifuge at 3000 rpm for ten minutes to obtain platelet poor plasma (PPP). PRP was diluted with PPP, and the number of platelets was adjusted to 500,000/μl. Platelet aggregation was examined by means of turbidimetry [Born, Nature, 194, 927-929 (1962)] with 8 channel aggregometer (NBS HEMA TRACER 6 Nikoh, Bioscience, Japan). More concretely, PRP (250 μl) was kept warm (37° C.) for three minutes in a silicon-processed cuvette, to which was added a test sample (25 μl) dissolved in a physiological saline or in 10mM dimethylsulfoxide followed by dilution with a physiological saline. Two minutes later, PAF (25 μl, 3×10^-9 -1×10^-8 M), dissolved in a physiological saline, was added and then the maximum aggregation rate was determined. As the control, physiological saline without test sample was added to the cuvette, and the inhibitory rate thereon was determined.

[4] = test system: reversed passive Arthus reaction; experiment: Inhibitory Action Against Reversed Passive Arthus Reaction; format: in vivo, Jcl SD male rats; settings: p.o. (n = 6)
Experimental: This reaction was conducted, in accordance with the method reported by Chang and Otterness [Eur. J. Pharmacol., 69, 155 (1981)], by using rabbit anti-egg albumin (EA) antiserum. Jcl SD male rats (7 wk) were used. Under ether anesthesia, the hair of the back was cut and 1 ml of a 0.5% solution of EA in physiological saline was injected into the tail vein, followed by intracutaneous injection of 0.1 ml each of the left- and right-hand sides of the back. Vascular permeability was measured as follows. Three hours later, 1 ml of physiological saline containing 1% of Evans blue was given intravenously, and 30 minutes later, the animals were sacrificed by bleeding and the skin excised, and the area of wheals stained with a leakage of the dye (major axis x minor axis, mm^2). The test compounds were suspended in a 5% gum arabic solution, which was administered orally one hour before administration of the antigen.

Wistar-strain rats = experiment: Toxicity Test; format: in vivo, Male Wistar-strain rats; settings: 30, 100 and 300 mg/kg per day orally, two weeks
Experimental: Male Wistar-strain rats (5 wk) were used in groups of five individuals. The animals of the respective groups were orally administered with the compound of Example 62 at the dose of 30, 100 and 300 mg/kg per day over a period of two weeks as a suspension in gum arabic and water at a rate of 10 ml/kg. The animals of the control group were administered with a suspension of gum arabic in water. [Results]

ET-induced death = experiment: Anti-Endotoxin Shock Activity in Rats: ET-induced death; format: in vivo, Jcl: SD male rats; settings: for Number of survivals: 30 mg/kg p.o. one hour before ET, n = 5
Experimental: as §2

[5] = 8 and 26 mg/kg/day, three weeks

COc1cc2c(cc1OC)CCCC(C(=O)N1CCN(C(=O)c3cc(OC)c(OC)c(OC)c3)CC1)=C2 [Example 62, 1-(2,3-dimethoxy-6,7-dihydro-5H-benzocyclohepten-8-ylcarbonyl)-4-(3,4,5-trimethoxybenzoyl)piperazine]
Angle of inclined plane where test animals tumble down the ramp (cerebral infarction [1]; 15 min after reperfusion): 34 ± 3 °
Angle of inclined plane where test animals tumble down the ramp (cerebral infarction [1]; 30 min after reperfusion): 35 ± 3 °
Angle of inclined plane where test animals tumble down the ramp (cerebral infarction [1]; 60 min after reperfusion, *P < 0.05): 35 ± 2 °
Angle of inclined plane where test animals tumble down the ramp (cerebral infarction [1]; 120 min after reperfusion, *P < 0.05): 36 ± 2 °
Angle of inclined plane where test animals tumble down the ramp (cerebral infarction [1]; 180 min after reperfusion): 38 ± 2 °
Angle of inclined plane where test animals tumble down the ramp (cerebral infarction [1]; ligation time 0 min): 47 ± 1 °
Angle of inclined plane where test animals tumble down the ramp (cerebral infarction [1]; ligation time 15 min): 20 ± 0 °
lowering of blood pressure due to ET (ET-induced hypotension; 30 mg/kg p.o.): suppressed significantly
Blood Pressure (ET-induced hypotension; 0 min): 92 ± 2 mmHg
Blood Pressure (ET-induced hypotension; 3 min): 82 ± 6 mmHg
Blood Pressure (ET-induced hypotension; 5 min, **P < 0.01): 90 ± 4 mmHg
Blood Pressure (ET-induced hypotension; 10 min, *P < 0.05): 90 ± 4 mmHg
Blood Pressure (ET-induced hypotension; 15 min): 92 ± 3 mmHg
Blood Pressure (ET-induced hypotension; 20 min): 95 ± 3 mmHg
inhibition in vivo at 30 mg/kg (PAF-Induced Hypotension; after 1 hr): 100%
inhibition in vivo at 30 mg/kg (PAF-Induced Hypotension; after 2 hrs): 100%
inhibition in vivo at 30 mg/kg (PAF-Induced Hypotension; after 4 hrs): 100%
Stroke index (cerebral infarction [2]; 15 min after reperfusion, **P < 0.01): 4.2 ± 0.6
Stroke index (cerebral infarction [2]; 30 min after reperfusion, **P < 0.01): 3.4 ± 0.5
Stroke index (cerebral infarction [2]; 60 min after reperfusion, **P < 0.01): 3.2 ± 0.5
Stroke index (cerebral infarction [2]; 120 min after reperfusion, **P < 0.01): 2.0 ± 0
Stroke index (cerebral infarction [2]; 180 min after reperfusion, **P < 0.01): 0.8 ± 0.5
Stroke index (cerebral infarction [2]; ligation time 0 min): 0
Stroke index (cerebral infarction [2]; ligation time 15 min, *P < 0.05): 14.0 ± 1.0
albumin (%) excreted in urine (diabetic nephropathy; 8 mg/kg/day p.o.): 46%
Amount of albumin excreted in urine (diabetic nephropathy; 8 mg/kg/day p.o.): 11.0 ± 2.0 mg/day
Amount of glucose in plasma (diabetic nephropathy; 8 mg/kg/day p.o.): 326 ± 26 mg/dL
Amount of triglyceride in plasma (diabetic nephropathy; 8 mg/kg/day p.o.): 499 ± 45 mg/dL
Total amount of protein in urine (diabetic nephropathy; 8 mg/kg/day p.o.): 23.8 ± 2.9 mg/day
suppression of excretion of albumin in urine (diabetic nephropathy; 26 mg/kg/day): significant
albumin (%) excreted in urine (diabetic nephropathy; 26 mg/kg/day p.o.): 36%
Amount of glucose in plasma (diabetic nephropathy; 26 mg/kg/day p.o.): 381 ± 33 mg/dL
Amount of triglyceride in plasma (diabetic nephropathy; 26 mg/kg/day p.o.): 546 ± 43 mg/dL
Total amount of protein in urine (diabetic nephropathy; 26 mg/kg/day p.o.): 22.0 ± 3.8 mg/day
Amount of albumin excreted in urine (diabetic nephropathy; 26 mg/kg/day p.o., *p<0.05 vs control): 8.0 ± 0.7 mg/day
excretion of albumin in urine (diabetic nephropathy; [5]): suppressed the excretion of albumin in urine dose-dependently
plasma glucose (diabetic nephropathy; [5]): No change
plasma triglyceride (diabetic nephropathy; [5]): No change
total protein in urine (diabetic nephropathy; high dose): showed a tendency of being suppressed in a high dose
inhibition at 30 µM [3]: 100%
Area of wheals stained with the dye ([4]; 3.1 mg/kg): 52.8 ± 2.7 mm^2
Preventive effect of reversed passive Arthus reaction ([4]; 3.1 mg/kg): 5%
Area of wheals stained with the dye ([4]; 12.5 mg/kg): 38.4 ± 6.1 mm^2
Preventive effect of reversed passive Arthus reaction ([4]; 12.5 mg/kg): 31%
Preventive effect of reversed passive Arthus reaction ([4]; 50 mg/kg): 70%
Area of wheals stained with the dye ([4]; 50 mg/kg, **P < 0.01): 16.8 ± 5.1 mm^2
body weight between the control group and the test group (Wistar-strain rats): No difference in body weight
general behaviors (Wistar-strain rats): no change was observed in general behaviors
internal organs under macroscopic observation (autopsy) (Wistar-strain rats): no abnormality in internal organs
Number of survivals (ET-induced death; 0 hr): 5
Number of survivals (ET-induced death; 1 hr): 5
Number of survivals (ET-induced death; 2 hr): 5
Number of survivals (ET-induced death; 3 hr): 5
Number of survivals (ET-induced death; 4 hr): 4
Number of survivals (ET-induced death; 5 hr): 2
Number of survivals (ET-induced death; 6 hr): 1
Number of survivals (ET-induced death; 7 hr): 1
Number of survivals (ET-induced death; 8 hr): 1
survival time (ET-induced death; 30 mg/kg p.o., control group 108±26 minutes, **): 320 ± 45 min
